# According to US4178442A, “Novel cinnamoyles piperazines and homopiperazines, the method of preparing them and their application in therapeutics” (Delalande S. A., priority 1977, dated 1979):
# Where a name gives a salt, the structure may show the parent alone. Read-outs that look alike come from different tables or passages of the source.
# Experiments:
# anaesthetized dog [1] = assay: Antiangorous activity on anaesthetized dog: consumption of oxygen in the left ventricule and cardiac effort (KATZ's index); assay type: in vivo; settings: for inhibition in vivo at 2.5 mg/kg / inhibition in vivo at 0.625 mg/kg / inhibition in vivo at 1.25 mg/kg: Canis lupus familiaris, iv
# Outline: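 Dogs anaesthetized with sodium pentobarbital 30 mg/kg i.v.; compounds given by slow i.v. perfusion. Left ventricular O2 consumption = coronary venous flow (Morawitz cannula in coronary sinus) × arteriovenous O2 difference; cardiac effort (Katz index) = mean arterial pressure × heart rate from D2 ECG.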
# in vivo = settings: for LD50: read-out: Toxicity: LD50; for mortality: read-out: Toxicity (Mortality)
# Excerpt: *LD50 or percentage of mortality which is given between brackets
# anaesthetized dog [2] = assay: Activity on the cerebral circulation, anaesthetized dog; assay type: in vivo; settings: for change in vivo at 5 mg/kg / change in vivo at 2.5 mg/kg: Canis lupus familiaris, iv; for Increase of the extraction of cerebral oxygen: (A-V)/A
# Method: The activity on the cerebral circulation was tested on an anaesthetized dog (sodium pentobarbital 30 mg/kg/i.v.). The vertebral artery flow was measured by means of an electromagnetic perivascular or ultrasonic Doppler effect probe. The intracerebral vascular resistance was estimated by the back pressure of the internal carotid artery. […] The increase in the extraction of cerebral oxygen was estimated by the following equation:(A-V)/A in which: A represents the volume of oxygen in the arterial blood (% volume) measured by hemoreflectometry (KIPP and ZONEN's apparatus) and quantity determination of the haemoglobin (DRABKIN's method). V represents the volume of oxygen in the cerebral venous blood (internal maxillary vein). […] It should be noted that the compounds tested were injected intravenously (rapid injection).
# [3] = 2.5 mg/kg i.v. slow perfusion, read-out: Diminution in consumption of O2
# [4] = 2.5 mg/kg i.v. slow perfusion, read-out: Diminution in the cardiac effort (IK)
# [5] = dog, 5 mg/kg i.v. rapid injection, read-out: Internal carotid artery back pressure
# [6] = dog, 5 mg/kg i.v. rapid injection, read-out: Systemic average arterial pressure
# [7] = dog, 5 mg/kg i.v. rapid injection, read-out: Vertebral artery flow
# [8] = dog, 5 mg/kg i.v. rapid injection
# [9] = dog, 2,5 mg/kg i.v. rapid injection, read-out: Internal carotid artery back pressure
# [10] = dog, 2,5 mg/kg i.v. rapid injection, read-out: Systemic average arterial pressure
# [11] = dog, 2,5 mg/kg i.v. rapid injection
# [12] = 0.625 mg/kg i.v. slow perfusion
# [13] = 0.625 mg/kg i.v. slow perfusion, read-out: Diminution in consumption of O2
# [14] = 0.625 mg/kg i.v. slow perfusion, read-out: Diminution in the cardiac effort (IK)
structure (smiles),measurement,setting,value
COc1cc(/C=C/C(=O)N2CCN(CC(O)COc3cccc(OC)c3OC)CC2)cc(OC)c1OC (stereo not shown) [760 393],Diminution in consumption of O2: in time,anaesthetized dog [1]; 2.5 mg/kg i.v. slow perfusion,15 min
same,Diminution in the cardiac effort (IK): in time,anaesthetized dog [1]; 2.5 mg/kg i.v. slow perfusion,15 min
same,inhibition in vivo at 2.5 mg/kg,anaesthetized dog [1]; [3],47%
same,inhibition in vivo at 2.5 mg/kg,anaesthetized dog [1]; [4],5%
same,LD50,in vivo; iv,319 mg/kg
same,change in vivo at 5 mg/kg,anaesthetized dog [2]; [5],-62%
same,change in vivo at 5 mg/kg,anaesthetized dog [2]; [6],-33%
same,change in vivo at 5 mg/kg,anaesthetized dog [2]; [7],150%
same,Systemic average arterial pressure: in time,anaesthetized dog [2]; [8],30 min
same,Vertebral artery flow: in time,anaesthetized dog [2]; [8],< 2 min
C=CCc1ccccc1OCC(O)CN1CCN(C(=O)/C=C/c2cc(OC)c(OC)c(OC)c2)CC1 (stereo not shown) [760 518],change in vivo at 5 mg/kg,anaesthetized dog [2]; [5],-48%
same,change in vivo at 5 mg/kg,anaesthetized dog [2]; [6],-15%
same,change in vivo at 5 mg/kg,anaesthetized dog [2]; [7],180%
same,Internal carotid artery back pressure: in time,anaesthetized dog [2]; [8],5 min
same,Systemic average arterial pressure: in time,anaesthetized dog [2]; [8],5 min
same,Vertebral artery flow: in time,anaesthetized dog [2]; [8],5 min
COc1cc(/C=C/C(=O)N2CCN(CC(O)COc3cccc(C(C)=O)c3)CC2)cc(OC)c1OC (stereo not shown) [770 458],Diminution in consumption of O2: in time,anaesthetized dog [1]; 2.5 mg/kg i.v. slow perfusion,23 min
same,Diminution in the cardiac effort (IK): in time,anaesthetized dog [1]; 2.5 mg/kg i.v. slow perfusion,15 min
same,inhibition in vivo at 2.5 mg/kg,anaesthetized dog [1]; [3],72%
same,inhibition in vivo at 2.5 mg/kg,anaesthetized dog [1]; [4],25%
same,LD50,in vivo; iv,250 mg/kg
same,change in vivo at 2.5 mg/kg,anaesthetized dog [2]; [9],-11%
same,change in vivo at 2.5 mg/kg,anaesthetized dog [2]; [10],-10%
same,Internal carotid artery back pressure: in time,anaesthetized dog [2]; [11],15 min
same,Systemic average arterial pressure: in time,anaesthetized dog [2]; [11],15 min
same,Increase of the extraction of cerebral oxygen,anaesthetized dog [2]; [11],+35%
"COc1cc(/C=C/C(=O)N2CCN(CC(O)CN(C)c3ccccc3)CC2)cc(OC)c1OC (stereo not shown) [770 495, 1-(3-N-methylanilino-2-hydroxy)propyl-4-(3,4,5-trimethoxycinnamoyl)piperazine, hydrated oxalate]",Diminution in consumption of O2: in time,anaesthetized dog [1]; 2.5 mg/kg i.v. slow perfusion,45 min
same,Diminution in the cardiac effort (IK): in time,anaesthetized dog [1]; 2.5 mg/kg i.v. slow perfusion,30 min
same,inhibition in vivo at 2.5 mg/kg,anaesthetized dog [1]; [3],74%
same,inhibition in vivo at 2.5 mg/kg,anaesthetized dog [1]; [4],43%
same,LD50,in vivo; iv,175 mg/kg
same,change in vivo at 2.5 mg/kg,anaesthetized dog [2]; [9],-17%
same,change in vivo at 2.5 mg/kg,anaesthetized dog [2]; [10],-20%
same,Internal carotid artery back pressure: in time,anaesthetized dog [2]; [11],60 min
same,Systemic average arterial pressure: in time,anaesthetized dog [2]; [11],20 min
same,Vertebral artery flow: in time,anaesthetized dog [2]; [11],60 min
same,Increase of the extraction of cerebral oxygen,anaesthetized dog [2]; [11],+188%
COc1cc(/C=C/C(=O)N2CCCN(CC(O)COc3ccccc3)CC2)cc(OC)c1OC (stereo not shown) [760 388],change in vivo at 5 mg/kg,anaesthetized dog [2]; [5],-65%
same,change in vivo at 5 mg/kg,anaesthetized dog [2]; [6],-44%
same,change in vivo at 5 mg/kg,anaesthetized dog [2]; [7],225%
same,Internal carotid artery back pressure: in time,anaesthetized dog [2]; [8],50 min
same,Systemic average arterial pressure: in time,anaesthetized dog [2]; [8],50 min
same,Vertebral artery flow: in time,anaesthetized dog [2]; [8],50 min
COc1cc(/C=C/C(=O)N2CCN(CC(O)COc3ccccc3C(C)=O)CC2)cc(OC)c1OC (stereo not shown) [760 455],Diminution in consumption of O2: in time,anaesthetized dog [1]; 2.5 mg/kg i.v. slow perfusion,15 min
same,Diminution in the cardiac effort (IK): in time,anaesthetized dog [1]; 2.5 mg/kg i.v. slow perfusion,30 min
same,inhibition in vivo at 2.5 mg/kg,anaesthetized dog [1]; [3],45%
same,inhibition in vivo at 2.5 mg/kg,anaesthetized dog [1]; [4],24%
same,mortality,"in vivo; iv, 255 mg/kg i.v.",50%
same,change in vivo at 5 mg/kg,anaesthetized dog [2]; [5],-90%
same,change in vivo at 5 mg/kg,anaesthetized dog [2]; [6],-39%
same,change in vivo at 5 mg/kg,anaesthetized dog [2]; [7],120%
same,Internal carotid artery back pressure: in time,anaesthetized dog [2]; [8],20 min
same,Systemic average arterial pressure: in time,anaesthetized dog [2]; [8],30 min
same,Vertebral artery flow: in time,anaesthetized dog [2]; [8],6 min
"COc1cc(/C=C/C(=O)N2CCN(CC(O)COc3ccc(C(C)=O)cc3C)CC2)cc(OC)c1OC (stereo not shown) [770 993, 1-[3-(2-methyl-4-acetyl)phenyl-2-hydroxy]-propyl-4-(3,4,5-trimethoxycinnamoyl)piperazine chlorhydrate]",Diminution in consumption of O2: in time,anaesthetized dog [1]; 2.5 mg/kg i.v. slow perfusion,23 min
same,Diminution in the cardiac effort (IK): in time,anaesthetized dog [1]; 2.5 mg/kg i.v. slow perfusion,13 min
same,inhibition in vivo at 2.5 mg/kg,anaesthetized dog [1]; [3],53%
same,inhibition in vivo at 2.5 mg/kg,anaesthetized dog [1]; [4],15%
same,LD50,in vivo; iv,10 mg/kg
COc1cc(/C=C/C(=O)N2CCN(CC(O)COc3cccc4c3CCCC4=O)CC2)cc(OC)c1OC (stereo not shown) [760 986],Diminution in consumption of O2: in time,anaesthetized dog [1]; 2.5 mg/kg i.v. slow perfusion,60 min
same,Diminution in the cardiac effort (IK): in time,anaesthetized dog [1]; 2.5 mg/kg i.v. slow perfusion,60 min
same,inhibition in vivo at 2.5 mg/kg,anaesthetized dog [1]; [3],61%
same,inhibition in vivo at 2.5 mg/kg,anaesthetized dog [1]; [4],27%
same,LD50,in vivo; iv,218 mg/kg
COc1cc(/C=C/C(=O)N2CCN(CC(O)COc3ccc(C)c4c3OCCO4)CC2)cc(OC)c1OC (stereo not shown) [760 847],Diminution in consumption of O2: in time,anaesthetized dog [1]; 2.5 mg/kg i.v. slow perfusion,60 min
same,inhibition in vivo at 2.5 mg/kg,anaesthetized dog [1]; [3],47%
same,inhibition in vivo at 2.5 mg/kg,anaesthetized dog [1]; [4],14%
same,mortality,"in vivo; iv, 169 mg/kg i.v.",20%
"COc1cc(/C=C/C(=O)N2CCN(CC(O)COc3ccc(O)c4c3OCCO4)CC2)cc(OC)c1OC (stereo not shown) [780 120, 1-[3-(4-hydroxy-2,3-ethylenedioxy)phenoxy-2-hydroxy]propyl-4-(3,4,5-trimethoxy-cinnamoyl)piperazine, hydrated chlorhydrate]",Diminution in consumption of O2: in time,anaesthetized dog [1]; 2.5 mg/kg i.v. slow perfusion,30 min
same,Diminution in the cardiac effort (IK): in time,anaesthetized dog [1]; 2.5 mg/kg i.v. slow perfusion,15 min
same,inhibition in vivo at 2.5 mg/kg,anaesthetized dog [1]; [3],65%
same,inhibition in vivo at 2.5 mg/kg,anaesthetized dog [1]; [4],29%
same,LD50,in vivo; iv,340 mg/kg
COc1cc(/C=C/C(=O)N2CCN(CC(O)COc3ccc(C(N)=O)cc3)CC2)cc(OC)c1OC (stereo not shown) [770 058],Diminution in consumption of O2: in time,anaesthetized dog [1]; 2.5 mg/kg i.v. slow perfusion,30 min
same,Diminution in the cardiac effort (IK): in time,anaesthetized dog [1]; 2.5 mg/kg i.v. slow perfusion,30 min
same,inhibition in vivo at 2.5 mg/kg,anaesthetized dog [1]; [3],36%
same,inhibition in vivo at 2.5 mg/kg,anaesthetized dog [1]; [4],35%
same,LD50,in vivo; iv,315 mg/kg
COc1cc(/C=C/C(=O)N2CCN(CC(O)COc3ccc(NC(=O)C(C)C)c4c3OCCO4)CC2)cc(OC)c1OC (stereo not shown) [770 692],Diminution in consumption of O2: in time,anaesthetized dog [1]; [12],15 min
same,Diminution in the cardiac effort (IK): in time,anaesthetized dog [1]; [12],30 min
same,inhibition in vivo at 0.625 mg/kg,anaesthetized dog [1]; [13],60%
same,inhibition in vivo at 0.625 mg/kg,anaesthetized dog [1]; [14],45%
same,mortality,"in vivo; iv, 200 mg/kg i.v.",60%
COc1cc(/C=C/C(=O)N2CCN(CC(O)COc3ccc(NC(=O)C4CCCCC4)c4c3OCCO4)CC2)cc(OC)c1OC (stereo not shown) [770 533],Diminution in consumption of O2: in time,anaesthetized dog [1]; [12],25 min
same,Diminution in the cardiac effort (IK): in time,anaesthetized dog [1]; [12],25 min
same,inhibition in vivo at 0.625 mg/kg,anaesthetized dog [1]; [13],30%
same,inhibition in vivo at 0.625 mg/kg,anaesthetized dog [1]; [14],28%
same,mortality,"in vivo; po, p.o.: 2000 mg/kg",10%
COc1cc(/C=C/C(=O)N2CCN(CC(O)COc3ccc(NC(=O)c4ccccc4)c4c3OCCO4)CC2)cc(OC)c1OC (stereo not shown) [770 529],Diminution in consumption of O2: in time,anaesthetized dog [1]; [12],30 min
same,Diminution in the cardiac effort (IK): in time,anaesthetized dog [1]; [12],30 min
same,inhibition in vivo at 0.625 mg/kg,anaesthetized dog [1]; [13],56%
same,inhibition in vivo at 0.625 mg/kg,anaesthetized dog [1]; [14],29%
same,mortality,"in vivo; po, p.o.: 2000 mg/kg",22%
CNC(=O)c1ccc(OCC(O)CN2CCN(C(=O)/C=C/c3cc(OC)c(OC)c(OC)c3)CC2)cc1 (stereo not shown) [770 135],Diminution in consumption of O2: in time,anaesthetized dog [1]; 1.25 mg/kg i.v. slow perfusion,30 min
same,Diminution in the cardiac effort (IK): in time,anaesthetized dog [1]; 1.25 mg/kg i.v. slow perfusion,30 min
same,inhibition in vivo at 1.25 mg/kg,"anaesthetized dog [1]; 1.25 mg/kg i.v. slow perfusion, read-out: Diminution in consumption of O2",40%
same,inhibition in vivo at 1.25 mg/kg,"anaesthetized dog [1]; 1.25 mg/kg i.v. slow perfusion, read-out: Diminution in the cardiac effort (IK)",28%
same,mortality,"in vivo; iv, 400 mg/kg i.v.",0%
CNC(=O)Nc1ccc(OCC(O)CN2CCN(C(=O)/C=C/c3cc(OC)c(OC)c(OC)c3)CC2)cc1C (stereo not shown) [770 898],Diminution in consumption of O2: in time,anaesthetized dog [1]; 2.5 mg/kg i.v. slow perfusion,45 min
same,Diminution in the cardiac effort (IK): in time,anaesthetized dog [1]; 2.5 mg/kg i.v. slow perfusion,38 min
same,inhibition in vivo at 2.5 mg/kg,anaesthetized dog [1]; [3],45%
same,inhibition in vivo at 2.5 mg/kg,anaesthetized dog [1]; [4],36%
same,mortality,"in vivo; iv, 400 mg/kg i.v.",0%
